According to patent US9738932B2, “Biomarkers for cardiovascular side-effects induced by cox-2 inhibitory compounds” (FIRALIS SAS, priority 2005, dated 2017):

System: mRNA expression in cardiovascular tissues
Assay: Affymetrix GeneChip mRNA expression profiling of monkey tissues (iliac vein, pulmonary vein, aorta, carotid artery, heart) after two-week oral-gavage treatment
Conditions: iliac vein; group avg, Vioxx without A60055

Cc1ccc(Nc2c(F)cccc2Cl)c(CC(=O)O)c1 [COX189, Lumiracoxib]
HFE (211329_x_at) avg fold change vs control: 0.9 fold
HFE (211332_x_at) avg fold change vs control: 1.1 fold
HFE (211863_x_at) avg fold change vs control: 1.3 fold
HFE (211866_x_at) avg fold change vs control: 1.2 fold
HHL (203020_at) avg fold change vs control: 1.0 fold
HLA-A (211528_x_at) avg fold change vs control: 1.3 fold
HLA-A (211529_x_at) avg fold change vs control: 1.3 fold
HLA-A (211530_x_at) avg fold change vs control: 1.6 fold
HLA-A (215313_x_at) avg fold change vs control: 1.3 fold
HLA-B (208729_x_at) avg fold change vs control: 1.3 fold
HLA-B (209140_x_at) avg fold change vs control: 1.2 fold
HLA-B (211911_x_at) avg fold change vs control: 1.3 fold
HLA-C (208812_x_at) avg fold change vs control: 1.1 fold
HLA-C (214459_x_at) avg fold change vs control: 1.2 fold
HLA-C (216526_x_at) avg fold change vs control: 1.4 fold
HLA-DMA (217478_s_at) avg fold change vs control: 1.2 fold
HLA-DMB (203932_at) avg fold change vs control: 1.2 fold
HLA-DQA1 (212671_s_at) avg fold change vs control: 1.6 fold
HLA-DQB1 (209823_x_at) avg fold change vs control: 1.0 fold
HLA-DQB1 (211654_x_at) avg fold change vs control: 1.8 fold
HLA-DQB1 (211656_x_at) avg fold change vs control: 1.3 fold
HLA-DQB2 (212998_x_at) avg fold change vs control: 1.4 fold
HLA-DRA (208894_at) avg fold change vs control: 1.2 fold
HLA-DRA (210982_s_at) avg fold change vs control: 1.1 fold
HLA-DRB1 (215193_x_at) avg fold change vs control: 1.5 fold
HLA-DRB3 (209312_x_at) avg fold change vs control: 1.3 fold
HLA-DRB6 (217362_x_at) avg fold change vs control: 1.3 fold
HLA-E (200905_x_at) avg fold change vs control: 1.2 fold
HLA-E (217456_x_at) avg fold change vs control: 1.4 fold
HLA-F (204806_x_at) avg fold change vs control: 1.2 fold
HLA-F (221875_x_at) avg fold change vs control: 1.2 fold
ICAM1 (202638_s_at) avg fold change vs control: 0.9 fold
ICAM1 (215485_s_at) avg fold change vs control: 1.0 fold
ICSBP1 (204057_at) avg fold change vs control: 1.2 fold
IFI27 (202411_at) avg fold change vs control: 4.2 fold
IFI30 (201422_at) avg fold change vs control: 1.1 fold
IFI44 (214453_s_at) avg fold change vs control: 2.0 fold
IFIT1 (203153_at) avg fold change vs control: 1.1 fold
IFIT2 (217502_at) avg fold change vs control: 1.4 fold
IFIT4 (204747_at) avg fold change vs control: 0.9 fold
IFITM2 (201315_x_at) avg fold change vs control: 1.2 fold
IFITM3 (212203_x_at) avg fold change vs control: 1.0 fold
IGF1 (209541_at) avg fold change vs control: 0.9 fold
IGFBP4 (201508_at) avg fold change vs control: 0.6 fold
IL1A (208200_at) avg fold change vs control: 1.6 fold
IL2RG (204116_at) avg fold change vs control: 1.3 fold
IL27RA (205926_at) avg fold change vs control: 1.1 fold
INDO (210029_at) avg fold change vs control: 1.2 fold
INPP5D (203332_s_at) avg fold change vs control: 1.2 fold
IRF1 (202531_at) avg fold change vs control: 1.3 fold
IRF7 (208436_s_at) avg fold change vs control: 1.6 fold
ISGF3G (203882_at) avg fold change vs control: 1.5 fold
ITGB2 (202803_s_at) avg fold change vs control: 1.0 fold
JAK1 (214377_s_at) avg fold change vs control: 1.1 fold
KLKB1 (206541_at) avg fold change vs control: 1.0 fold
LAIR1 (208071_s_at) avg fold change vs control: 1.1 fold
LCK (204890_s_at) avg fold change vs control: 1.4 fold
LCP2 (205270_s_at) avg fold change vs control: 1.2 fold
LILRB1 (207857_at) avg fold change vs control: 0.7 fold
LILRB1 (211100_x_at) avg fold change vs control: 1.0 fold
LILRB3 (208594_x_at) avg fold change vs control: 1.0 fold
LILRB3 (210225_x_at) avg fold change vs control: 1.1 fold
LRMP (204674_at) avg fold change vs control: 1.6 fold
LY86 (205859_at) avg fold change vs control: 0.9 fold
LY96 (206584_at) avg fold change vs control: 1.0 fold
LYN (210754_s_at) avg fold change vs control: 0.8 fold
MAF (209348_s_at) avg fold change vs control: 0.9 fold
PCOLCE (202465_at) avg fold change vs control: 0.8 fold
PLA2G4C (209785_s_at) avg fold change vs control: 1.4 fold
PLCL2 (216217_at) avg fold change vs control: 0.9 fold
PLSCR1 (202446_s_at) avg fold change vs control: 1.0 fold
PRC1 (218009_s_at) avg fold change vs control: 1.0 fold
PRG1 (201858_s_at) avg fold change vs control: 0.9 fold
PRG1 (201859_at) avg fold change vs control: 0.9 fold
PTPN22 (206060_s_at) avg fold change vs control: 1.2 fold
PTPRC (207238_s_at) avg fold change vs control: 1.1 fold
SOCS3 (206360_s_at) avg fold change vs control: 1.0 fold
STAT1 (209969_s_at) avg fold change vs control: 1.4 fold
STAT1 (AFFX-HUMISGF3A/M97935_5_at) avg fold change vs control: 1.6 fold
STAT1 (AFFX-HUMISGF3A/M97935_MA_at) avg fold change vs control: 1.2 fold
STAT1 (AFFX-HUMISGF3A/M97935_MB_at) avg fold change vs control: 1.9 fold
TAPBP (208829_at) avg fold change vs control: 1.1 fold
TCTEL1 (201999_s_at) avg fold change vs control: 0.9 fold
TLR1 (210176_at) avg fold change vs control: 0.8 fold
TLR2 (204924_at) avg fold change vs control: 0.8 fold
TNFAIP3 (202643_s_at) avg fold change vs control: 1.2 fold
TNFAIP3 (202644_s_at) avg fold change vs control: 1.3 fold
TNFSF6 (210865_at) avg fold change vs control: 1.3 fold
TNFSF10 (202687_s_at) avg fold change vs control: 1.2 fold
TNFSF10 (202688_at) avg fold change vs control: 1.2 fold
TRGC2 (211144_x_at) avg fold change vs control: 1.3 fold
TRGC2 (216920_s_at) avg fold change vs control: 1.1 fold
VCAM1 (203868_s_at) avg fold change vs control: 0.9 fold
XCL1 (206366_x_at) avg fold change vs control: 1.7 fold
XCL1 (214567_s_at) avg fold change vs control: 1.3 fold
XLKD1 (219059_s_at) avg fold change vs control: 1.0 fold
cig5 (213797_at) avg fold change vs control: 1.8 fold
